In test [1] the test system is PIM-2. Briefly: PIM-2 ubiquitination (K-ε-GG ubiquitin remnant profiling) after proteasome inhibitor treatment, U266 cells. It is filed as cell-based. The note with it: PIM-2 lysine 61; U266 (4 hr); 125 nM; vs DMSO control. The procedure:
(§1) Multiple myeloma cells were used to identify pro-survival proteins that were stabilized upon carfilzomib exposure by monitoring an increase in ubiquitination at specific sites associated with degradation. Two multiple myeloma cell lines, U266 and NCI-H929, were treated for 1 and 4 hours at 125 nM concentration of carfilzomib and bortezomib. DMSO treated cells were used as a control. The concentrations of active agents used were set at the IC80 of chymotrypsin activity inhibition and 48 hr cytotoxicity. The subunit inhibition profile obtained for these concentrations in vitro mimicked the subunit inhibition profile for carfilzomib in patients treated with a dose of 27 mg/m^2. Washed cell pellets were processed and profiled for ubiquitin modified proteins using a specific di-glycine antibody (PTMScan® Ubiquitin Remnant Motif (K-ε-GG) Kit #5562) that recognizes all lysine ubiquitin linkages on ubiquitin ligase substrates. All lysines on a protein that are modified with ubiquitin can be identified by this approach, and the lysines distal from the phosphorylation sites can then be associated with degradation. […] The increase in ubiquitin was also time dependent in NCI-H929 (Table 1).

Test [2] relates to PIM-2. As to the kind of experiment: PIM-2 ubiquitination (K-ε-GG ubiquitin remnant profiling) after proteasome inhibitor treatment, NCI-H929 cells. The note with it: PIM-2 lysine 61, 125 nM, vs DMSO control. In kind it is cell-based. The protocol:
as §1

With `CC(C)C[C@H](NC(=O)[C@H](Cc1ccccc1)NC(=O)c1cnccn1)B(O)O` [BTZ, bortezomib], the results for the Ubiquitin fold increases in test [1], in test [2] (H929 (1 hr)) and in test [2] (H929 (4 hr)) were 31.5 fold, 11 fold and 21.4 fold, respectively.

For the compound `CC(C)C[C@H](NC(=O)[C@H](CCc1ccccc1)NC(=O)CN1CCOCC1)C(=O)N[C@@H](Cc1ccccc1)C(=O)N[C@@H](CC(C)C)C(=O)[C@@]1(C)CO1` [CFZ, carfilzomib], the Ubiquitin fold increases in test [1] is reported as 34.6 fold; in test [2] (H929 (1 hr)) it was 10.7 fold; in test [2] (H929 (4 hr)), 24.9 fold.

These data come from patent US12076363B2, “Peptide epoxyketone proteasome inhibitors in combination with PIM kinase inhibitors for treatment of cancers” (ONYX PHARMACEUTICALS, INC., priority 2013, dated 2024).
